According to paper PMC7093416, “Selective USP7 inhibition elicits cancer cell killing through a p53-dependent mechanism” (Scientific Reports, 2020):
Several values for one entry are separate records, joined by “and”; a condition that tells them apart may be missing. Identical values can stand only once.

System: panel of 484 cancer cell lines
Assay: PRISM cancer cell line profiling, 5 days
Format: cell-based
Parameters: Viability: scale not given here; AUC: unit not given beside the values
Method: Cancer cell line profiling was performed using the Broad’s PRISM platform. Cell treatment and data analysis were performed as described in Yu et al[42]. Raw Luminex signal was converted to AUC values for each cell line as described. The resulting AUC profile for each compound was modeled against DepMap using the limma package in R[71]. Because hotspot mutation analysis was performed against DepMap, TP53 annotations in Fig. 6c,d are directly from DepMap.

[1] = 8MGBA_CENTRAL_NERVOUS_SYSTEM, pert_dose 6.10E-04
[2] = 253J_URINARY_TRACT, pert_dose 6.10E-04
[3] = 786O_KIDNEY, pert_dose 6.10E-04
[4] = 8305C_THYROID, pert_dose 6.10E-04
[5] = 8505C_THYROID, pert_dose 6.10E-04
[6] = A172_CENTRAL_NERVOUS_SYSTEM, pert_dose 6.10E-04
[7] = ACHN_KIDNEY, pert_dose 6.10E-04
[8] = AN3CA_ENDOMETRIUM, pert_dose 6.10E-04
[9] = ASPC1_PANCREAS, pert_dose 6.10E-04
[10] = BC3C_URINARY_TRACT, pert_dose 6.10E-04
[11] = BECKER_CENTRAL_NERVOUS_SYSTEM, pert_dose 6.10E-04
[12] = BFTC905_URINARY_TRACT, pert_dose 6.10E-04
[13] = BFTC909_KIDNEY, pert_dose 6.10E-04
[14] = BICR6_UPPER_AERODIGESTIVE_TRACT, pert_dose 6.10E-04
[15] = BICR16_UPPER_AERODIGESTIVE_TRACT, pert_dose 6.10E-04

## COc1ccc(C2=N[C@@H](c3ccc(Cl)cc3)[C@@H](c3ccc(Cl)cc3)N2C(=O)N2CCNC(=O)C2)c(OC(C)C)c1 [Nutlin-3A]
8MGBA_CENTRAL_NERVOUS_SYSTEM
  AUC: 1.128
[1]
  MFI 8MGBA_CENTRAL_NERVOUS_SYSTEM: 9934 and 14986 and 8645 and 10478 and 11554
  Viability: 0.9428
22RV1_PROSTATE
  AUC: 1.096
42MGBA_CENTRAL_NERVOUS_SYSTEM
  AUC: 1.109
42MGBA_CENTRAL_NERVOUS_SYSTEM, pert_dose 6.10E-04
  MFI 42MGBA_CENTRAL_NERVOUS_SYSTEM: 4116 and 5824 and 3462 and 5974.5 and 4899
253JBV_URINARY_TRACT
  AUC: 0.9024
253J_URINARY_TRACT
  AUC: 0.9134
[2]
  MFI 253J_URINARY_TRACT: 13400 and 14082 and 16791.5 and 16677.5 and 16246
  Viability: 0.9155
639V_URINARY_TRACT
  AUC: 1.087
647V_URINARY_TRACT
  AUC: 1.106
647V_URINARY_TRACT, pert_dose 6.10E-04
  MFI 647V_URINARY_TRACT: 28744 and 33002 and 29259 and 22669.5 and 34567
769P_KIDNEY
  AUC: 0.9079
786O_KIDNEY
  AUC: 1.095
[3]
  MFI 786O_KIDNEY: 5233.5 and 8009.5 and 6751 and 6471 and 5976.5
  Viability: 0.8974
5637_URINARY_TRACT
  AUC: 1.131
5637_URINARY_TRACT, pert_dose 6.10E-04
  MFI 5637_URINARY_TRACT: 5164 and 5198 and 5608 and 5118 and 4250
8305C_THYROID
  AUC: 1.086
[4]
  MFI 8305C_THYROID: 12807.5 and 11646.5 and 14452 and 19016 and 21699
  Viability: 0.9334
8505C_THYROID
  AUC: 1.09
[5]
  MFI 8505C_THYROID: 8489.5 and 8271 and 7453 and 9513 and 9868
  Viability: 1.233
2313287_STOMACH
  AUC: 1.164
A101D_SKIN
  AUC: 0.8317
A172_CENTRAL_NERVOUS_SYSTEM
  AUC: 0.8527
[6]
  MFI A172_CENTRAL_NERVOUS_SYSTEM: 9637 and 10480 and 8488 and 7646 and 8288
  Viability: 1.171
A204_SOFT_TISSUE
  AUC: 0.961
A204_SOFT_TISSUE, pert_dose 6.10E-04
  MFI A204_SOFT_TISSUE: 193.5 and 222 and 295.5 and 243.5 and 208
A375_SKIN
  AUC: 0.8657
A375_SKIN, pert_dose 6.10E-04
  MFI A375_SKIN: 6835.5 and 8654.5 and 5268 and 5613 and 4840.5
  Viability: 1.106
A549_LUNG
  AUC: 0.859
A549_LUNG, pert_dose 6.10E-04
  MFI A549_LUNG: 9119 and 8938 and 13071.5 and 13916 and 10911
  Viability: 1.178
A673_BONE
  AUC: 1.118
A704_KIDNEY
  AUC: 0.9164
A2058_SKIN
  AUC: 1.115
A2058_SKIN, pert_dose 6.10E-04
  MFI A2058_SKIN: 18135 and 19395 and 19549.5 and 22935 and 20108
  Viability: 1.165
A2780_OVARY
  AUC: 0.8149
A2780_OVARY, pert_dose 6.10E-04
  MFI A2780_OVARY: 18911 and 15634 and 16575 and 14170.5 and 15163.5
ABC1_LUNG
  AUC: 1.193
ACCMESO1_PLEURA
  AUC: 1.068
ACHN_KIDNEY
  AUC: 0.8632
[7]
  MFI ACHN_KIDNEY: 12459.5 and 11580 and 11974.5 and 13015.5 and 8174
  Viability: 1.255
AGS_STOMACH
  AUC: 1.099
AGS_STOMACH, pert_dose 6.10E-04
  MFI AGS_STOMACH: 33881 and 40936.5 and 34938 and 35658 and 38326
AN3CA_ENDOMETRIUM
  AUC: 1.0825
[8]
  MFI AN3CA_ENDOMETRIUM: 6120 and 10572 and 7019 and 6758 and 9328
  Viability: 0.9599
ASPC1_PANCREAS
  AUC: 1.065
[9]
  MFI ASPC1_PANCREAS: 18934.5 and 23594 and 20951.5 and 18601 and 21238
  Viability: 1.138
BC3C_URINARY_TRACT
  AUC: 1.147
[10]
  MFI BC3C_URINARY_TRACT: 12791.5 and 13915 and 8459 and 10458.5 and 8646
  Viability: 1.328
BCPAP_THYROID
  AUC: 1.122
BECKER_CENTRAL_NERVOUS_SYSTEM
  AUC: 1.117
[11]
  MFI BECKER_CENTRAL_NERVOUS_SYSTEM: 24187 and 19210 and 17010 and 22220 and 21019.5
  Viability: 1.525
BEN_LUNG
  AUC: 1.146
BEN_LUNG, pert_dose 6.10E-04
  MFI BEN_LUNG: 7960 and 8798 and 6007 and 9178 and 9972.5
  Viability: 1.0724
BFTC905_URINARY_TRACT
  AUC: 1.2069
[12]
  MFI BFTC905_URINARY_TRACT: 6936 and 8493 and 9950.5 and 8885 and 6674.5
  Viability: 0.7676
BFTC909_KIDNEY
  AUC: 1.167
[13]
  MFI BFTC909_KIDNEY: 11810 and 18038 and 14602 and 12914 and 16966
  Viability: 1.223
BHT101_THYROID
  AUC: 1.133
BICR6_UPPER_AERODIGESTIVE_TRACT
  AUC: 1.14
[14]
  MFI BICR6_UPPER_AERODIGESTIVE_TRACT: 13342 and 11342 and 11621 and 10074.5 and 14217
  Viability: 1.497
BICR16_UPPER_AERODIGESTIVE_TRACT
  AUC: 1.202
[15]
  MFI BICR16_UPPER_AERODIGESTIVE_TRACT: 5443.5 and 5515 and 3801.5 and 7225 and 7467
  Viability: 1.266
BICR31_UPPER_AERODIGESTIVE_TRACT
  AUC: 1.128
BICR31_UPPER_AERODIGESTIVE_TRACT, pert_dose 6.10E-04
  MFI BICR31_UPPER_AERODIGESTIVE_TRACT: 17717 and 15090 and 19092 and 15830 and 14976
BICR56_UPPER_AERODIGESTIVE_TRACT
  AUC: 1.158
BT474_BREAST
  AUC: 1.172
BT549_BREAST
  AUC: 1.133
BXPC3_PANCREAS
  AUC: 1.49
CADOES1_BONE
  AUC: 1.1262
CADOES1_BONE, pert_dose 6.10E-04
  Viability: 1.326
CAKI1_KIDNEY
  AUC: 0.8906
CAKI1_KIDNEY, pert_dose 6.10E-04
  MFI CAKI1_KIDNEY: 21451 and 18142 and 20425 and 19719.5 and 25262.5
